From patent US12281086B2, “2-aminothiazoles derivatives and method of preparation thereof using super-paramagnetic iron oxide nanoparticles (SPIONs)” (Imam Abdulrahman Bin Faisal University, priority 2023, dated 2025)

Columns and labels:
Type in all cases: cell-based
[1] = tested on: S. aureus; test: Anti-microbial activity, inhibition zone, S. aureus; on Inhibition Zone(mm ± SD) S. aureus: test concentration or dose not given here
Procedure: (§1) All synthesized compounds were tested for their antimicrobial activities against five types of microorganisms, including gram-negative and positive bacteria and fungi. The gram-negative bacteria include E. coli and P. aeruginosa, while B. subtilis and S. aureus represented the gram-positive bacteria. C. albicans was the fungus used in the screening. […] In addition, the antibacterial activity of the Schiff bases seems to be insensitive to the position and the nature of the substituents. […] For the gram-positive bacteria, the antibacterial activity was more significant in Schiff base derivatives when compared to azo derivatives.

[2] = tested on: C. albicans; test: Anti-microbial (antifungal) activity, inhibition zone, C. albicans; further: test concentration or dose not given here
Procedure: as §1

[3] = tested on: E. coli; test: Anti-microbial activity, inhibition zone, E. coli; on Inhibition Zone(mm ± SD) E. coli: test concentration or dose not given here
Procedure: as §1

[4] = tested on: P. aeruginosa; test: Anti-microbial activity, inhibition zone, P. aeruginosa; on Inhibition Zone(mm ± SD) P. aeruginosa: test concentration or dose not given here
Procedure: as §1

[5] = tested on: B. subtilis; test: Anti-microbial activity, inhibition zone, B. subtilis; on Inhibition Zone(mm ± SD) Bacillus: test concentration or dose not given here; details: for Inhibition Zone(mm ± SD) Bacillus: Bacillus (B. subtilis)
Procedure: as §1

SMILES	Inhibition Zone(mm ± SD) S. aureus [1]	Inhibition Zone(mm ± SD) Candida [2]	Inhibition Zone(mm ± SD) E. coli [3] [mm]	Inhibition Zone(mm ± SD) P. aeruginosa [4]	Inhibition Zone(mm ± SD) Bacillus [5]	antibacterial activity against E. coli (in words) [3]	growth inhibition against P. aeruginosa (in words) [4]	activity against S. aureus (in words) [1]	activity against B. subtilis (in words) [5]
Nc1nccs1 [Compound 1, 2-aminothiazole]	Nil	Nil	9.8 ± 0.2	Nil	Nil	–	–	–	–
ClN=Nc1nccs1 [Compound 2, 2-(Chlorodiazenyl)Thiazole]	Nil	Nil	10.15 ± 0.4	Nil	Nil	–	–	–	–
CC1=NNC(=O)C1N=Nc1nccs1 (stereo not drawn) [Compound 6, 3-methyl-4-(thiazol-2-yldiazenyl)-1H-pyrazol-5(4H)-one]	Nil	Nil	22 ± 0.8	16 mm	Nil	most potent antibacterial activity	showed growth inhibition	–	–
NC1=NNC(=O)C1N=Nc1nccs1 (stereo not drawn) [Compound 7, 3-amino-4-(thiazol-2-yldiazenyl)-1H-pyrazol-5(4H)-one]	12.3 ± 0.9 mm	12 ± 0 mm	16 ± 1.4	Nil	8.6 ± 0.4 mm	–	–	showed activity	showed activity
CC1=NN=C(C)C1N=Nc1nccs1 [Compound 8, (3,5-Dimethyl-4H-pyrazol-4-yl)-thiazol-2-yl-diazene]	Nil	Nil	20.6 ± 0.9	Nil	10.6 ± 0.4 mm	–	–	–	–
C(=Nc1nccs1)c1ccccc1 [Compound 9, N-(benzylidene)thiazol-2-amine]	Nil	Nil	8.8 ± 0.4	8 ± 0 mm	Nil	least potent	showed growth inhibition	–	–
Clc1ccc(C=Nc2nccs2)cc1 [Compound 10, N-(4-chlorobenzylidene)thiazol-2-amine]	Nil	Nil	14.3 ± 0.4	Nil	Nil	–	–	–	–
O=[N+]([O-])c1ccccc1C=Nc1nccs1 [Compound 11, N-(2-nitrobenzylidene)thiazol-2-amine]	10.6 ± 0.4 mm	Nil	12.3 ± 0.9	11.8 ± 0.6 mm	8.6 ± 0.9 mm	–	showed growth inhibition	exhibited activities	exhibited activities
Oc1ccc(C=Nc2nccs2)cc1 [Compound 12, 4-((thiazol-2-ylimino)methyl)phenol]	10.3 ± 0.7 mm	Nil	13.3 ± 1.2	Nil	Nil	–	–	–	–
Oc1ccccc1C=Nc1nccs1 [Compound 13, 2-((thiazol-2-ylimino)methyl)phenol]	9.6 ± 0.3 mm	Nil	14.95 ± 0.5	9 ± 0.8 mm	11.3 ± 0.4 mm	–	showed growth inhibition	exhibited activities	exhibited activities
COc1ccc(C=Nc2nccs2)cc1 [Compound 14, N-(4-methoxybenzylidene)thiazol-2-amine]	Nil	Nil	12.3 ± 0.4	Nil	10.3 ± 0.4 mm	–	–	–	–
COc1ccccc1C=Nc1nccs1 [Compound 15, N-(2-methoxybenzylidene)thiazol-2-amine]	Nil	Nil	12.6 ± 0.5	Nil	Nil	–	–	–	–
COc1ccc(C=Nc2nccs2)c(OC)c1 [Compound 16, N-(2,4-dimethoxy-benzylidene)-thiazol-2-yl-amine]	13 ± 0.1 mm	Nil	13 ± 0.4	Nil	12.3 ± 0.4 mm	–	–	exhibited activities	exhibited activities
COc1cccc(C=Nc2nccs2)c1OC [Compound 17, N-(2,3-dimethoxybenzylidene)thiazol-2-amine]	9.3 ± 0.4 mm	Nil	10.95 ± 0.3	Nil	Nil	–	–	–	–
Cc1[nH]c2ccccc2c1C=Nc1nccs1 [Compound 18, N-((2-methyl-1H-indol-3-yl)methylene)thiazol-2-amine]	11.3 ± 0.4 mm	Nil	16.2 ± 0.9	14.6 ± 0.7 mm	10 ± 0.2 mm	–	showed growth inhibition	–	–
